Experimental findings from patent US8211894B2, “Heteroarylalkyl-8-azabicyclo[3.2.1]octane compounds as mu opioid receptor antagonists” (Theravance, Inc., priority 2007, dated 2012) are described below.

Where two headings read alike, the source gives them in different places.

Test [1] relates to loperamide-induced delayed gastric emptying. As to the kind of experiment: Rat gastric emptying assay (reversal of loperamide-induced delayed gastric emptying). The format is in vivo. Particulars: administered orally, loperamide 1 mg/kg s.c., gastric emptying model. As for the experimental part:
Assay 3: Rat Model of In Vivo Efficacy In this assay the efficacy of test compounds was evaluated in a model of gastrointestinal transit, which evaluates peripheral activity. This study was approved by the Institutional Animal Care and Use Committee at […]. and conformed to the Guide for the Care and Use of Laboratory Animals published by the National Academy of Sciences (©1996). a. Rat Gastric Emptying Assay Test compounds were evaluated in the rat gastric emptying assay to determine their ability to reverse loperamide-induced delayed gastric emptying. […] The administration of test compound was followed by subcutaneous administration of loperamide at a dose of 1 mg/kg or vehicle. Five minutes post loperamide or vehicle administration, a non-nutritive, non-absorbable charcoal meal was administered via oral gavage and animals were allowed free access to water for the sixty minute duration of the experiment. […] Gastric weight was then determined after removal of the ligatures. b. Data Analysis and Results Data was analyzed using the GraphPad Prism Software package (GraphPad Software, Inc., San Diego, Calif.). Percent reversal curves were constructed by non-linear regression analysis using the sigmoidal dose response (variable slope) model and best-fit ID50 values were calculated. […]

The target of test [2] is T1, human mu opioid receptor (Homo sapiens, UniProt P35372).
T1 construct: host or cells: CHO-K1
T1 sequence (P35372 whole entry): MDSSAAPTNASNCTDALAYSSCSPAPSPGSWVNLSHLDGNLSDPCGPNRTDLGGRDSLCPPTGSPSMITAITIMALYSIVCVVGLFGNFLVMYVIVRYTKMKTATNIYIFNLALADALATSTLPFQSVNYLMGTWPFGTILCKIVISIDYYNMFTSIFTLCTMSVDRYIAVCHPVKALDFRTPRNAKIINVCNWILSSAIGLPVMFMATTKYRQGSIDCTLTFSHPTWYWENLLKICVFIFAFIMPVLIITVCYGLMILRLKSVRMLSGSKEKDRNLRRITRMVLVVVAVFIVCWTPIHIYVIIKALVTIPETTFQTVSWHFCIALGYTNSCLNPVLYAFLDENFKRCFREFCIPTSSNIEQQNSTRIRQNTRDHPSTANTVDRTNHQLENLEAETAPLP
As to the kind of experiment: Human mu GTP-Eu nucleotide exchange assay (agonist mediated activation, CHO-K1 membranes). The format is biochemical. Particulars: bound GTP-Eu relative to DAMGO (IA=100); read-out: intrinsic activity (IA), expressed as a percentage.

Test [3] has as its target T1, human mu opioid receptor. The test is described as follows: Radioligand binding assay, human mu opioid receptor ([3H]-Diprenorphine displacement).
Setting [4] is: [3H]-Diprenorphine 0.5 nM, CHO-K1 membranes, read-out: pKi at the human mu opioid receptor (converted).

Take `NC(=O)c1cccc([C@H]2C[C@H]3CC[C@@H](C2)N3Cc2cn(C3CCCCC3)nn2)c1` [Example 1, 3-endo-[8-(1-Cyclohexyl-1H-[1,2,3]-triazol-4-ylmethyl)-8-azabicyclo[3.2.1]oct-3-yl]benzamide]: in test [1], the “ID50, dose required for 50% reversal of the effects of loperamide” value is on record as 0.13 mg/kg. Further, on human mu opioid receptor [2], the Emax was -4%. On human mu opioid receptor [3], the Ki is 0.0501 nM.
The like results for `NC(=O)c1cccc([C@H]2C[C@H]3CC[C@@H](C2)N3Cc2cn(C3CCC(F)(F)CC3)nn2)c1` [Example 4, 3-endo-{8-[1-(4,4-Difluorocyclohexyl)-1H-1,2,3-triazol-4-ylmethyl]-8-azabicyclo[3.2.1]oct-3-yl}benzamide] were, in that order, 0.25 mg/kg, 0% and 0.1 nM.
Turning to `CCCc1cn(CCN2[C@@H]3CC[C@H]2C[C@@H](c2cccc(C(N)=O)c2)C3)nn1` [Example 8, 3-endo-{8-[2-(4-Propyl-[1,2,3]-triazol-1-yl)-ethyl]-8-aza-bicyclo[3.2.1]oct-3-yl}benzamide], the Emax on human mu opioid receptor [2] is -4%. Also, the Ki on human mu opioid receptor [3] (setting [4]) is 0.0794 nM.
The corresponding values for `NC(=O)c1cccc([C@H]2C[C@H]3CC[C@@H](C2)N3CCCn2cc(-c3ccc(F)cc3F)nn2)c1` [Example 9, 3-endo-(8-{3-[4-(2,4-Difluorophenyl)-[1,2,3]-triazol-1-yl]-propyl}-8-azabicyclo[3.2.1]oct-3-yl)benzamide] are -1% and 0.0501 nM.
The like results for `NC(=O)c1cccc([C@H]2C[C@H]3CC[C@@H](C2)N3Cc2cncn2Cc2ccccc2)c1` [Example 11, 3-endo-[8-(3-Benzyl-1H-imidazol-4-ylmethyl)-8-aza-bicyclo[3.2.1]oct-3-yl]-benzamide] were, in that order, 6% and 0.631 nM.
Regarding `CC(C)Cc1nc(CCCN2[C@@H]3CC[C@H]2C[C@@H](c2cccc(C(N)=O)c2)C3)no1` [Example 14, 3-endo-{8-[3-(5-Isobutyl-1,2,4-oxadiazol-3-yl)-propyl]-8-aza-bicyclo[3.2.1]oct-3-yl}benzamide], the Emax at human mu opioid receptor [2] was -11%. Also, the Ki on human mu opioid receptor [3] (setting [4]) was 1.58 nM.
